# Earlier results in US20050148556A1, “Compositions and methods for increasing HDL and HDL-2b levels” (priority 2003, published 2005).
# Conditions: in vivo
compound,measurement,value
"CN(C)C(=N)N=C(N)N [Metformin, metformin]",HDL cholesterol levels after metformin therapy,either do not change or increase slightly
